Molecular target: T1, VDRRXRα heterodimer (Homo sapiens, UniProt P11473, DEL151-190)
T1 construct: Full-length WT His-hVDR (Δ (151–190)) and WT Flag-h RXRα were expressed in a baculovirus system; His; made in house; host or cells: baculovirus system (VDR, RXRα); Escherichia coli BL21 DE3 (SRC1 RID)
T1 sequence (P11473 with tags, fused parts or gaps DEL151-190): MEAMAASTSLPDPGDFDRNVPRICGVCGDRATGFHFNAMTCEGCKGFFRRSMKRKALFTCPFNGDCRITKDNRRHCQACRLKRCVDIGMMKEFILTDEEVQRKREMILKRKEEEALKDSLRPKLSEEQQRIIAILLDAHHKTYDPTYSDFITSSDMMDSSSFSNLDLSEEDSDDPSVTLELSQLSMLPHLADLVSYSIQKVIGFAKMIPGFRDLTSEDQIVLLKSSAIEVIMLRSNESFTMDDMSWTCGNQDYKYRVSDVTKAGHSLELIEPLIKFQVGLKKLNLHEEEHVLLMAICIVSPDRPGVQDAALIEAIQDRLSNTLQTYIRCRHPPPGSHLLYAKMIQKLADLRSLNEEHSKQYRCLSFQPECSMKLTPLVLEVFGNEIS
T1 sequence (P19793 1-462 partner): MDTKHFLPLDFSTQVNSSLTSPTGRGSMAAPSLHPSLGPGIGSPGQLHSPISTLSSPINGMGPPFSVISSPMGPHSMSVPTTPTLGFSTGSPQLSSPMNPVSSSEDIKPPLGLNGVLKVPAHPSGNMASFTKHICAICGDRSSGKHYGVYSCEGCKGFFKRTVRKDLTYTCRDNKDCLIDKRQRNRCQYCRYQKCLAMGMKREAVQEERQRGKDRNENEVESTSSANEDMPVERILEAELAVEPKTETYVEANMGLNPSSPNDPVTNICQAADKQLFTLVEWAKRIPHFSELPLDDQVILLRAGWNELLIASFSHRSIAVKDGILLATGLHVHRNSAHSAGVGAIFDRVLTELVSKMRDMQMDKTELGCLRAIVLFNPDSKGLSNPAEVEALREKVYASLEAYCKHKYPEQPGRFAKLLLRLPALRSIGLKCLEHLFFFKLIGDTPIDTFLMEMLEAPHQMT
T1 sequence (Q15788 627-786 partner limits assumed): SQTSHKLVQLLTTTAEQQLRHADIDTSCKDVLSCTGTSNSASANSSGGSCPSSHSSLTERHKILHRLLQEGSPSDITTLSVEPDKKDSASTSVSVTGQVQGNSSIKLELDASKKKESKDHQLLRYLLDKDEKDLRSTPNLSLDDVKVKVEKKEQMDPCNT
Experiment: Differential HDX-MS of liganded full-length VDRRXRα heterodimer with DNA VBS and SRC1 RID
Format: binding
Settings: for decrease in solvent exchange within H12 of VDR upon SRC1 RID binding: ligand-heterodimer-DR3 or -DR3 half-site complex (both alike), aa412−419 for Cmpd1; for ΔΔHDX in the VDR hinge region (aa97−108): ΔHDX heterodimer:agonist ± DR3 minus ΔHDX heterodimer:agonist ± DR3 half-site
Procedure: The final protein buffer was 50 mM Tris (pH 8.0), 150 mM NaCl, 10% glycerol and 2 mM DTT.
The DR3 VBS 5′-[…]-3′, DR3 half-site VBS 5′-[…]-3′, BGLAP VBS 5′-[…]-3′, BGLAP* VBS 5′-[…]-3′ and TRPV6 VBS 5′-[…]-3′ duplex oligonucleotides were purchased from Integrated DNA Technologies. […] SRC1 RID was added in a 2× molar ratio to heterodimer, and oligonucleotide (VBS) was mixed with the protein complex as needed (1.5× molar ratio). […]
Solution-phase amide HDX experiments were carried out with a fully automated system (CTC HTS PAL, LEAP Technologies, Carrboro, NC; housed inside a 4 °C cabinet) as follows.
HDX-MS analysis: 10 μM of the apo protein was mixed with 1:10 molar excess of ligand and incubated for 2 h at 4 °C for complex formation before subjecting them to HDX analysis. For the differential HDX experiments, 5 μl of either the apo or the liganded protein complex with DNA and SRC1 RID were mixed with 20 μl of D2O-containing HDX buffer (50 mM Tris, pH 8.0, 150 mM NaCl, and 2 mM DTT) and incubated at 4 °C for 0 s, 10 s, 30 s, 60 s, 300 s, 900 s, or 3,600 s. Following on-exchange, unwanted forward-exchange or back-exchange was minimized and the protein was denatured by the addition of 25 μl of a quench solution (1% v/v TFA in 3 M urea and 50 mM TCEP). Samples were then immediately passed through an immobilized pepsin column (prepared in house) at 50 μl min-1 (0.1% v/v TFA, 15 °C) and the resulting peptides were trapped and desalted on a 1.0 mm × 10 mm C8 trap column (Hypersil Gold, Thermo Fisher, Grand Island, NY). The bound peptides were then gradient-eluted (5–50% CH3CN v/v and 0.3% v/v formic acid) across a 1.0 mm × 50 mm C18 separation column (Hypersil Gold, Thermo Fisher, Grand Island, NY) for 6 min. Sample handling and peptide separation were conducted at 4 °C. The eluted peptides were then subjected to electrospray ionization directly coupled to a high resolution Orbitrap mass spectrometer (LTQ Orbitrap XL with ETD, Q Exactive, or Exactive, Thermo Fisher Scientific, San Jose, CA). Each HDX experiment was carried out in triplicate with a single preparation of each protein-ligand complex. The intensity weighted mean m/z centroid value of each peptide envelope was calculated and subsequently converted into a percentage of deuterium incorporation. This is accomplished by determining the observed averages of the undeuterated and fully deuterated spectra using the conventional formula described elsewhere. […] Statistical significance for the differential HDX data is determined by an unpaired t-test for each time point, a procedure that is integrated into the HDX Workbench software.
Data Statistics: Deuterium uptake for each peptide is calculated as the average of % D for all on-exchange time points and the difference in average %D values between the apo and ligand bound samples is presented as a heat map with a color code given at the bottom of the figure (warm colors for deprotection and cool colors for protection). […] Peptides with non-significant changes between the two states are colored gray. The exchange at the first two residues for any given peptide is not colored.

[1] = both ligand-heterodimer-VBS complexes (DR3, DR3 half-site)

SMILES | decrease in solvent exchange within H12 of VDR upon SRC1 RID binding | ΔΔHDX in the VDR hinge region (aa97−108) [%] | decreased exchange for H1 of VDR upon SRC1 RID interaction [1] | decreased exchange for H3 of VDR upon SRC1 RID interaction [1] | further reduction in deuterium exchange of VDR AF2 H12 upon binding of TRPV6 VBS (ligand-bound heterodimer, not observed upon binding the BGLAP VBS) | protection to solvent exchange at VDR AF2 surface upon SRC1 RID interaction (ligand-heterodimer-BGLAP VBS complex) | protection to solvent exchange at VDR AF2 surface upon SRC1 RID interaction (ligand-heterodimer-TRPV6 VBS complex)
CCC(CC)(c1ccc(OCC(O)C(C)(C)C)c(C)c1)c1ccc(C(=O)N(C)CC(=O)O)c(C)c1 (stereo not drawn) [Cmpd1, [(4-{1-ethyl-1-[4-(2-hydroxy-3,3-dimethyl-butoxy)-3-methyl-phenyl]-propyl}-2-methyl-benzoyl)-methyl-amino]-acetic acid] | ~ 11% | 21 | – | – | – | – | –
CCc1cc(C(CC)(CC)c2ccc(OCC(O)C(C)(C)C)c(C)c2)sc1C(=O)N[C@@H](C)C(=O)O (single isomer, unassigned) [Cmpd2, L-2-[(5-{1-Ethyl-1-[4-(2-hydroxy-3,3-dimethyl-butoxy)-3-methyl-phenyl]-propyl}-3-ethyl-thiophene-2-carbonyl)-amino]-propionic acid] | ~ 20% | 19 | ~ 6% | ~ 9% | – | – | –
CCC(CC)(c1ccc(OCC(O)C(C)(C)C)c(C)c1)c1cc(C)c(C(=O)Nc2nnn[nH]2)s1 (stereo not drawn) [Cmpd3, 3'-[4-(2-hydroxy-3,3-dimethylbutoxy)-3-methylphenyl]-3'-[5-(tetrazol-5-yl-aminocarbonyl)-4-methylthiophen-2-yl]pentane] | – | – | – | – | ~ 13% | ~ 20% | ~ 9%

Reference: article PMC5640644, “HDX reveals the conformational dynamics of DNA sequence specific VDR co-activator interactions” (Nature Communications, 2017)
